From US20240158446A1, “CYCLIC COMPOUND HAVING SELECTIVE INHIBITORY ACTION ON KRAS OVER HRAS AND NRAS” (CHUGAI SEIYAKU KABUSHIKI KAISHA, priority 2021, published 2024)
Read-outs that look alike come from different tables or passages of the source.

Legend:
[1] = system: human lung cancer strain NCI-H441; conditions: read-out: NCI-H441 cell proliferation inhibitory activity, 50% proliferation inhibitory concentration (IC50 value); NCI-H441, four days, CellTiter-Glo;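 also: cell proliferation inhibition after four days measured by CellTiter-Glo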
[2] = target: GDP-bound HRAS wild-type protein (Homo sapiens, UniProt P01112); experiment: Binding to HRAS by surface plasmon resonance (SPR), Single Cycle Kinetics; conditions: SPR; for HRAS/KRAS (ratio of KD value for HRAS to KD value for KRAS): GDP-bound HRAS wild-type protein vs GDP-bound KRAS wild-type protein
[3] = target: GDP-bound KRAS wild-type protein (Homo sapiens, UniProt P01116); experiment: Binding to KRAS by surface plasmon resonance (SPR), Single Cycle Kinetics; conditions: SPR, Single Cycle Kinetics
[4] = target: GDP-bound NRAS wild-type protein (Homo sapiens, UniProt P01111); experiment: Binding to NRAS by surface plasmon resonance (SPR), Single Cycle Kinetics; conditions: SPR; for NRAS/KRAS (ratio of KD value for NRAS to KD value for KRAS): GDP-bound NRAS wild-type protein vs GDP-bound KRAS wild-type protein
[5] = 1:1 binding model, read-out: KD value with respect to GDP-bound KRAS wild-type protein
[6] = GDP-bound KRAS wild-type protein, read-out: KRAS KD

GDP-bound KRAS wild-type protein, sequence (P01116 whole entry): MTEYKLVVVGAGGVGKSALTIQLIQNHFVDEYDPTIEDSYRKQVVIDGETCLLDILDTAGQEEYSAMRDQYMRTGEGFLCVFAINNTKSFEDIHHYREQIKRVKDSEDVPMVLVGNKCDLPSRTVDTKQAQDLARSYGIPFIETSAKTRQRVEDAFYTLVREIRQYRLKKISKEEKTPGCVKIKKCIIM
GDP-bound NRAS wild-type protein, sequence (P01111 whole entry): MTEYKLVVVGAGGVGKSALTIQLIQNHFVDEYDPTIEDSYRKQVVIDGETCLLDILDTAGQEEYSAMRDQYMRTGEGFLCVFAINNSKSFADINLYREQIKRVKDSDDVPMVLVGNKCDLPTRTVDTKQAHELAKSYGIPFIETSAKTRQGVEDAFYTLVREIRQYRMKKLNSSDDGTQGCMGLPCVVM
GDP-bound HRAS wild-type protein, sequence (P01112 whole entry): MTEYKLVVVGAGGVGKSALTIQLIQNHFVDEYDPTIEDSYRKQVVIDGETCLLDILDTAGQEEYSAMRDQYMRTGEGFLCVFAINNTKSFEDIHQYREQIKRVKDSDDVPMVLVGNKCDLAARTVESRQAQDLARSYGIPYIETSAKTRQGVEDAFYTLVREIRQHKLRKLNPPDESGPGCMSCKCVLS

Compound | IC50 [1] [nM] | HRAS/KRAS (ratio of KD value for HRAS to KD value for KRAS) [2] | ratio of the KD value with respect to GDP-bound HRAS wild-type protein to the KD value with respect to KRAS [2] | Kd [3, 5] [nM] | Kd [3, 6] [nM] | NRAS/KRAS (ratio of KD value for NRAS to KD value for KRAS) [4] | ratio of the KD value with respect to GDP-bound NRAS wild-type protein to the KD value with respect to KRAS [4]
CCC[C@H]1C(=O)N[C@@H]([C@@H](C)CC)C(=O)N2CCC[C@H]2C(=O)N(C)[C@H]2C/C=C\CCN(C2=O)[C@@H](Cc2ccc(C)cc2)C(=O)N(C)CC(=O)N[C@@H](CCc2ccc(C(F)(F)F)c(OC)c2)C(=O)N2C[C@H](OCC)C[C@H]2C(=O)N(C)C2(CCC2)C(=O)N(C)[C@@H](C2CCCC2)C(=O)N(C)[C@H](C(=O)N2CCCC2)CC(=O)N1C [PP3102, (1S,4S,10S,13S,17S,20S,26S,28R,32S,38S,42Z)-20-cyclopentyl-28-ethoxy-32-[2-[3-methoxy-4-(trifluoromethyl)phenyl]ethyl]-2,14,18,21,24,36-hexamethyl-10-[(1S)-1-methylpropyl]-13-propyl-38-(p-tolylmethyl)-17-(pyrrolidine-1-carbonyl)spiro[2,8,11,14,18,21,24,30,33,36,39-undecazatetracyclo[37.5.1.0^4,8.0^26,30]pentatetracont-42-ene-23,1′-cyclobutane]-3,9,12,15,19,22,25,31,34,37,45-undecone] | 6.7 | A (a compound having 10 or more and less than 20 is denoted as A) | A (a compound having 10 or more and less than 20 is denoted as A) | 0.18 | 0.18 | A (a compound having 10 or more and less than 20 is denoted as A) | A (a compound having 10 or more and less than 20 is denoted as A)
CCC[C@H]1C(=O)N[C@@H]([C@@H](C)CC)C(=O)N(C)CC(=O)N(C)[C@H]2C/C=C\CCN(C2=O)[C@@H](Cc2ccc(C)cc2)C(=O)N(C)CC(=O)N[C@@H](CCc2ccc(C(F)(F)F)c(OC)c2)C(=O)N2C[C@H](OCC)C[C@H]2C(=O)N(C)C2(CCC2)C(=O)N(C)[C@@H](C2CCCC2)C(=O)N(C)[C@H](C(=O)N2CCCCC2)CC(=O)N1C [PP3104, (2S,8S,12R,14S,20S,23S,27S,30S,36S,38Z)-20-cyclopentyl-12-ethoxy-8-[2-[3-methoxy-4-(trifluoromethyl)phenyl]ethyl]-4,16,19,22,26,32,35-heptamethyl-30-[(1S)-1-methylpropyl]-23-(piperidine-1-carbonyl)-27-propyl-2-(p-tolylmethyl)spiro[1,4,7,10,16,19,22,26,29,32,35-undecazatricyclo[34.5.1.0^10,14]dotetracont-38-ene-17,1′-cyclobutane]-3,6,9,15,18,21,25,28,31,34,42-undecone] | 3.8 | A (a compound having 10 or more and less than 20 is denoted as A) | A (a compound having 10 or more and less than 20 is denoted as A) | 0.097 | 0.097 | A (a compound having 10 or more and less than 20 is denoted as A) | A (a compound having 10 or more and less than 20 is denoted as A)
CCC[C@H]1C(=O)N[C@@H]([C@@H](C)CC)C(=O)N(C)CC(=O)N(C)[C@H]2C/C=C\CCN(C2=O)[C@@H](Cc2ccc(C(F)(F)F)cc2)C(=O)N(C)CC(=O)N[C@@H](CCc2ccc(C(F)(F)F)c(OC)c2)C(=O)N2C[C@H](OCC)C[C@H]2C(=O)N(C)C2(CCC2)C(=O)N(C)[C@@H](C2CCCC2)C(=O)N(C)[C@H](C(=O)N2CCCC2)CC(=O)N1C [PP3105, (2S,8S,12R,14S,20S,23S,27S,30S,36S,38Z)-20-cyclopentyl-12-ethoxy-8-[2-[3-methoxy-4-(trifluoromethyl)phenyl]ethyl]-4,16,19,22,26,32,35-heptamethyl-30-[(1S)-1-methylpropyl]-27-propyl-23-(pyrrolidine-1-carbonyl)-2-[[4-(trifluoromethyl)phenyl]methyl]spiro[1,4,7,10,16,19,22,26,29,32,35-undecazatricyclo[34.5.1.0^10,14]dotetracont-38-ene-17,1′-cyclobutane]-3,6,9,15,18,21,25,28,31,34,42-undecone] | 2.5 | A (a compound having 10 or more and less than 20 is denoted as A) | A (a compound having 10 or more and less than 20 is denoted as A) | 0.06 | 0.06 | AA (a compound having 20 or more is denoted as AA) | AA (a compound having 20 or more is denoted as AA)
CCC[C@H]1C(=O)N[C@@H]([C@@H](C)CC)C(=O)N(C)CC(=O)N(C)[C@H]2C/C=C\CCN(C2=O)[C@@H](Cc2ccc(C)cc2)C(=O)N(C)CC(=O)N[C@@H](CCc2ccc(C(F)(F)F)c(OC)c2)C(=O)N2C[C@H](OCC)C[C@H]2C(=O)N(C)C2(CCC2)C(=O)N(C)[C@@H](C2CCCC2)C(=O)N(C)[C@H](C(=O)N2CCCC2)CC(=O)N1C [PP3106, (2S,8S,12R,14S,20S,23S,27S,30S,36S,38Z)-20-cyclopentyl-12-ethoxy-8-[2-[3-methoxy-4-(trifluoromethyl)phenyl]ethyl]-4,16,19,22,26,32,35-heptamethyl-30-[(1S)-1-methylpropyl]-27-propyl-2-(p-tolylmethyl)-23-(pyrrolidine-1-carbonyl)spiro[1,4,7,10,16,19,22,26,29,32,35-undecazatricyclo[34.5.1.0^10,14]dotetracont-38-ene-17,1′-cyclobutane]-3,6,9,15,18,21,25,28,31,34,42-undecone] | 2.9 | A (a compound having 10 or more and less than 20 is denoted as A) | A (a compound having 10 or more and less than 20 is denoted as A) | 0.048 | 0.048 | A (a compound having 10 or more and less than 20 is denoted as A) | A (a compound having 10 or more and less than 20 is denoted as A)
CC[C@H](C)[C@@H]1NC(=O)[C@H](CC(C)C)N(C)C(=O)CSC[C@H](C(=O)N(C)C)N(C)C(=O)[C@H](C2CCCC2)N(C)C(=O)C2(CCCC2)NC(=O)[C@@H]2CCCN2C(=O)[C@@H](CCc2cc(F)c(C(F)(F)F)c(F)c2)NC(=O)CN(C)C(=O)[C@H](Cc2ccc(C(F)(F)F)cc2)N2CC=CC[C@@H](C2=O)N(C)C(=O)CN(C)C1=O [PP3108] | 9250 | B (a compound having 3 or more and less than 10 is denoted as B) | B (a compound having 3 or more and less than 10 is denoted as B) | 870 | 870 | C (A compound having a KD ratio of 0.1 or more and less than 3 is denoted as C) | C (A compound having a KD ratio of 0.1 or more and less than 3 is denoted as C)
CCC[C@H]1C(=O)N[C@@H]([C@@H](C)CC)C(=O)N(C2CC2)CC(=O)N(C)[C@H]2C/C=C\CCN(C2=O)[C@@H](Cc2ccc(C(F)(F)F)cc2)C(=O)N(C)CC(=O)N[C@@H](CCc2cc(F)c(C(F)(F)F)c(F)c2)C(=O)N2C[C@H](OCC)C[C@H]2C(=O)N(C)C2(CCC2)C(=O)N(C)[C@@H](C2CCCC2)C(=O)N(C)[C@H](C(=O)N2CCCCC2)CC(=O)N1C [PP3110] | 69.9 | A (a compound having 10 or more and less than 20 is denoted as A) | A (a compound having 10 or more and less than 20 is denoted as A) | 4.3 | 4.3 | A (a compound having 10 or more and less than 20 is denoted as A) | A (a compound having 10 or more and less than 20 is denoted as A)
CCC[C@H]1C(=O)N[C@@H]([C@@H](C)CC)C(=O)N(C2CC2)CC(=O)N(C)[C@H]2C/C=C\CCN(C2=O)[C@@H](Cc2ccc(C(F)(F)F)cc2)C(=O)N(C)CC(=O)N[C@@H](CCc2cc(F)c(C(F)(F)F)c(F)c2)C(=O)N2C[C@H](OCC)C[C@H]2C(=O)N(C)C2(CCC2)C(=O)N(C)[C@@H](C2CCCC2)C(=O)N(C)[C@H](C(=O)N2CCCC2)CC(=O)N1C [PP3112] | 32.4 | B (a compound having 3 or more and less than 10 is denoted as B) | B (a compound having 3 or more and less than 10 is denoted as B) | 3.1 | 3.1 | A (a compound having 10 or more and less than 20 is denoted as A) | A (a compound having 10 or more and less than 20 is denoted as A)
